Results published in patent US20250041283A1, “COCRYSTAL OF AN IDH1 INHIBITOR, PROCESS OF PREPARATION THEREOF, PHARMACEUTICAL COMPOSITIONS THEREOF, AND METHODS OF TREATMENT INVOLVING THE SAME” (Servier Pharmaceuticals LLC, priority 2023, published 2025).

Key:
[1] = Solubility in biorelevant media (SGF, FASSIF); type: physicochemical; settings: thermodynamic from solid, 37° C., after 1 h
[2] = Physicochemical stability of cocrystal powder stressed at different temperatures and humidities (XRPD); settings: 6 weeks and 12 months at 25° C./60% RH, 25° C./90% RH, 40° C./75% RH and 50° C.
Method: (§1) FIG. 5 depicts the overlay of the X-ray diffraction spectra of the glutaric acid cocrystal type A of Compound 1 stressed 6 weeks at 25° C./60% RH, 25° C./90% RH, 40° C./75% RH and 50° C. with the theoretical X-ray diffraction spectrum of the said cocrystal (calculated form the single crystal structure).
as §1, with “FIG. 6” for “FIG. 5”, “stressed 12 months” for “stressed 6 weeks”
The XRPD patterns were recorded from 3.5° 2q to 35° 2q using an Empyrean diffractometer from Panalytical operating in the transmission mode with CuKα radiation (l=1.5418 Å) at 45 kV and 40 mA and with a 0.013° 2q step size for 15 minutes (list of examples).

[3] = Sorption/desorption isotherm 0% RH to 90% RH at 25° C.; type: physicochemical
Method: The sorption isotherm of the cocrystal was recorded between 0% RH and 90% RH at 25° C. (see FIG. 7).
The sorption/desorption isotherm of the cocrystal was recorded using the following method: • Equilibrate the sample at 0% RH until the dm/dt was below 0.0005% for 30 consecutive minutes or until maximum 24 hours. • Increase of the relative humidity up to 90% RH with step every 10% RH. Each step was maintained until the dm/dt was below 0.0005% for 30 consecutive minutes or until maximum 24 hours. • Decrease of the relative humidity up to 0% RH with step every 10% RH. Each step was maintained until the dm/dt was below 0.0005% for 30 consecutive minutes or until maximum 24 hours.

[4] = Tablets by direct compression: hardness and tensile strength; type: physicochemical; settings: 50 mg tablets, 0.5% magnesium stearate
Method: Tablets were prepared by direct compression using a STYL'ONE EVO compaction simulator from Medelpharm Instruments.
Compound 1, either in Form 1, Form T11 or as a glutaric acid cocrystal type A was lubricated by 0.5% magnesium stearate before compression. 99.5% of Compound 1 and 0.5% of magnesium stearate (e.g., 4.975 g of Compound 1 and 0.025 g of magnesium stearate) were used. Compound 1 was weighed, and magnesium stearate was sifted on a 0.4 mm sieve and added progressively to Compound 1. The mixture was homogenized using a Turbula T2F blender for 5 minutes.
50 mg tablets were prepared using a STYL'ONE EVO compaction simulator applying a compressing force of 2.5 kN or 5.0 kN.

[5] = Flowability of lubricated mixtures (European Pharmacopeia); type: physicochemical
Method: The flowability of the lubricated mixture previously prepared was measured according to the Guidelines of European Pharmacopeia.

[6] = Comparative rat PK study, oral capsules; type: in vivo; settings: male Wistar rats, 24 mg/kg
Method: The objective of this study was to compare the pharmacokinetics (PK) of four oral (PO) dosage forms of Compound 1 in male Wistar rats (4 groups, N=3/group). Lubricated mixtures prepared from Examples 5A (prepared from Form 1 and Form T11) and 5B (prepared from cocrystal of Example 1) and amorphous solid dispersion of Compound 1 obtained through spray drying as in commercial batches were manually and individually filled in capsules (Size 9).
The administered dose was 24 mg/kg, considering that each rat's weight was around 250 g.
Methods: Animals were fasted approximately 6 hours before dosing and fed 3 at 4 hours post-dose. All animals had free access to water. Compound 1 dose were given to rats via oral gavage (2 capsules/one single administration). Blood samples were collected via the saphenous vein into test tubes containing potassium ethylenediaminetetraacetic acid (K2EDTA) from all animals at 0.25, 0.5, 1, 2, 4, 8, 24, 48 and 72 hours post-dose. Blood sample were centrifuged at 2000 g for 5 minutes to obtain plasma samples. Compound 1 concentration in plasma samples was quantified using a liquid chromatography with tandem mass spectrometry (LC-MS/MS) method. The lower limit of quantification was 1.00 ng/mL with a sample volume of 20 μL.

[7] = Four weeks stability study of lubricated mixtures and tablets (XRPD); type: physicochemical; settings: 4 weeks, open vials, 25° C./60% RH and 40° C./75% RH
Method: Four weeks stability of samples of lubricated mixtures of Example 3B and 5B and tablets of Example 6 prepared from cocrystal of Example 1 was tested according to the following protocol.
All the samples were stored 4 weeks in controlled temperature and humidity chambers in open vials at 25° C./60% RH or 40° C./75% RH. The XPRD analyses were performed extemporaneously in order to be representative of all the samples at temperature and humidity equilibria.
Tablets of Cocrystal+AQ/AV or AV (from Example 6) were gently grinded leading a powder suitable for XRPD analysis. Lubricated mixtures from Examples 3B and 5B were analyzed without grinding. The XRPD patterns were recorded from 3.5° 2q to 35° 2q using an Empyrean diffractometer from Panalytical operating in the transmission mode with CuKα radiation (l=1.5418 Å) at 45 kV and 40 mA and with a 0.013° 2q step size for 30 minutes.

[8] = compressive force applied 2.5 kN
[9] = compressive force applied 5.0 kN
[10] = lubricated mixtures of Examples 3A and 3B

Question: For `N#Cc1ccnc(N2C(=O)CC[C@H]2C(=O)N(c2cncc(F)c2)[C@H](C(=O)NC2CC(F)(F)C2)c2ccccc2Cl)c1` [Glutaric acid cocrystal of Compound 1], which solubility at 1 h ([1]; simulated gastric fluid, SGF) is on record?
Answer: 8 µg/mL

Question: And the solubility at 1 h ([1]; FASSIF)?
Answer: 13 µg/mL

Question: And the “Physicochemical stability of the powder” value [2]?
Answer: physicochemically stable

Question: And the “Stability in humidity conditions (sorption isotherm)” value [3]?
Answer: stable

Question: What about the Tablet hardness [4, 8] of the same compound?
Answer: 41.6 N

Question: And the Tensile strength [4, 8]?
Answer: 2.562 MPa

Question: What about the Tablet hardness [4, 9] of the same compound?
Answer: 46.4 N

Question: And the Tensile strength [4, 9]?
Answer: 2.998 MPa

Question: And the “Carr's Index” value [5, 10]?
Answer: 24%

Question: What about the “Carr's Index (flowability) rating” value [5, 10] of the same compound?
Answer: Adequate

Question: And the “Flowability” value [5, 10]?
Answer: suitable flowability

Question: And the Hausner ratio [5, 10]?
Answer: 1.32

Question: And the “Hausner ratio (cohesion + compressibility) rating” value [5, 10]?
Answer: Adequate

Question: What about the Flow time ([5]; lubricated mixtures of Examples 3A and 3B (AV, without AQ), N.S.F. = no spontaneous flow detected) of the same compound?
Answer: 8.3 s

Question: And the Inter-individual variability [6]?
Answer: 11%

Question: What about the “Kinetics of absorption / absorption profile versus commercial formulation” value [6] of the same compound?
Answer: comparable to the one of the commercial formulation

Question: What about the bioavailability ([6]; rat, plasma, read-out: Relative bioavailability compared to commercial formulation) of the same compound?
Answer: 61%

Question: And the “Stability of the cocrystal in lubricated mixtures and tablets (AQ/AV or AV)” value [7]?
Answer: perfectly stable
